Assays:
[1] = organism: Mustela putorius furo; test: Inotropic activity as dose required to cause 20% positive or negative change in contractile force of papillary muscle from ferret (F).; type: functional, Muscle tissue
[2] = molecular target: cAMP phosphodiesterase (Canis familiaris); test: Inhibition of canine cardiac cAMP phosphodiesterase (cAMP-PDE)
[3] = organism: Mustela putorius furo; test: Inotropic activity as dose required to cause 20% positive or negative change in contractile force of papillary muscle from ferret (F); type: functional; conditions: Muscle tissue
[4] = tested on: Canis familiaris; test: Equieffective dose for contractility in anesthetized dogs for a maximum dose of 1.0 mg/kg. Values Ranges From :0.02-0.05; type: functional, Canis lupus familiaris
[5] = tested on: Canis familiaris; test: Equieffective dose for heart rate in anesthetized dogs for a maximum dose of 1.0 mg/kg. Values Ranges From :0.01-0.8; type: functional, Canis lupus familiaris
[6] = tested on: Canis familiaris; test: Equieffective dose for mean arterial pressure in anesthetized dogs for a maximum dose of 1.0 mg/kg. Values Ranges From :0.2,0.4; type: functional, Canis lupus familiaris, Artery
[7] = tested on: Canis familiaris; test: Equieffective dose for mean arterial pressure in anesthetized dogs for a maximum dose of 3.0 mg/kg. Values Ranges From :0.6-1.5; type: functional, Canis lupus familiaris, Artery
[8] = tested on: Canis familiaris; test: Equieffective dose for contractility in anesthetized dogs for a maximum dose of 3.0 mg/kg. Values Ranges From :0.05-0.9; type: functional, Canis lupus familiaris
[9] = tested on: Canis familiaris; test: Equieffective dose for heart rate in anesthetized dogs for a maximum dose of 3.0 mg/kg. Values Ranges From :0.08-0.6; type: functional, Canis lupus familiaris
[10] = tested on: Canis familiaris; test: Equieffective dose for heart rate in anesthetized dogs for a maximum dose of 0.1 mg/kg. Values Ranges From :0.009-0.02; type: functional, Canis lupus familiaris
[11] = tested on: Canis familiaris; test: Equieffective dose for mean arterial pressure in anesthetized dogs for a maximum dose of 0.1 mg/kg. Values Ranges From :0.02-0.04; type: functional, Canis lupus familiaris, Artery
[12] = tested on: Canis familiaris; test: Equieffective dose for contractility in anesthetized dogs for a maximum dose of 0.1 mg/kg. Values Ranges From :0.005-0.07; type: functional, Canis lupus familiaris
[13] = tested on: Canis familiaris; test: Equieffective dose for heart rate in anesthetized dogs for a maximum dose of 0.3 mg/kg. Values Ranges From :0.02-0.2; type: functional, Canis lupus familiaris
[14] = tested on: Canis familiaris; test: Equieffective dose for contractility in anesthetized dogs for a maximum dose of 0.3 mg/kg. Values Ranges From :0.01-0.2; type: functional, Canis lupus familiaris
[15] = tested on: Canis familiaris; test: Equieffective dose for mean arterial pressure in anesthetized dogs for a maximum dose of 0.3 mg/kg. 0.07-0.3; type: functional, Canis lupus familiaris, Artery
[16] = tested on: Canis familiaris; test: Equieffective dose for mean arterial pressure in anesthetized dogs for a maximum dose of 1.0 mg/kg. Values Ranges From :0.04-1.0; type: functional, Canis lupus familiaris, Artery
[17] = tested on: Canis familiaris; test: Equieffective dose for contractility in anesthetized dogs for a maximum dose of 1.0 mg/kg. Values Ranges From :0.03-0.07; type: functional, Canis lupus familiaris
[18] = tested on: Canis familiaris; test: Equieffective dose for heart rate in anesthetized dogs for a maximum dose of 1.0 mg/kg. Values Ranges From :0.04-0.3; type: functional, Canis lupus familiaris
[19] = tested on: Canis familiaris; test: Equieffective dose for contractility in anesthetized dogs for a maximum dose of 3.0 mg/kg.; type: functional, Canis lupus familiaris
[20] = tested on: Canis familiaris; test: Equieffective dose for heart rate in anesthetized dogs for a maximum dose of 3.0 mg/kg. Values ranges from :0.05-0.2; type: functional, Canis lupus familiaris
[21] = tested on: Canis familiaris; test: Equieffective dose for mean arterial pressure in anesthetized dogs for a maximum dose of 3.0 mg/kg. Values Ranges From: 0.2-2.4; type: functional, Canis lupus familiaris, Artery
[22] = tested on: Canis familiaris; test: Equieffective dose for contractility in anesthetized dogs for a maximum dose of 3.0 mg/kg. Values Ranges From:0.1-0.4; type: functional, Canis lupus familiaris
[23] = tested on: Canis familiaris; test: Equieffective dose for heart rate in anesthetized dogs for a maximum dose of 3.0 mg/kg. Values Ranges From:0.7-2; type: functional, Canis lupus familiaris
[24] = tested on: Canis familiaris; test: Equieffective dose for mean arterial pressure in anesthetized dogs for a maximum dose of 3.0 mg/kg. Values Ranges From:0.1-1.4; type: functional, Canis lupus familiaris, Artery
[25] = tested on: Canis familiaris; test: Equieffective dose for contractility in anesthetized dogs for a maximum dose of 3.0 mg/kg. Values Ranges From :0.2-1.0; type: functional, Canis lupus familiaris
[26] = tested on: Canis familiaris; test: Equieffective dose for mean arterial pressure in anesthetized dogs for a maximum dose of 3.0 mg/kg. Values Ranges From :2.0; type: functional, Canis lupus familiaris, Artery
[27] = tested on: Canis familiaris; test: Equieffective dose for heart rate in anesthetized dogs for a maximum dose of 3.0 mg/kg. Values Ranges From :0.3-1.0; type: functional, Canis lupus familiaris

SMILES	IC50 [2] [µM]	C20 [1] [µM]	also measured
CCc1[nH]c(O)nc1C(=O)c1ccc(-n2ccnc2CCC(C)C)cc1	7	21.7	–
CCc1[nH]c(O)nc1C(=O)c1ccc(-n2cc[n+](C)c2C)cc1	> 100	–	C20 [3]: Not reached
CCc1[nH]c(O)nc1C(=O)c1ccc(-n2cc(C)nc2CC)cc1	19	21	–
Cc1[nH]c(O)nc1C(=O)c1ccc(-c2ncc[nH]2)cc1	27	1.1	–
CCc1[nH]c(O)nc1C(=O)c1ccc(-n2ccnc2C)cc1	–	0.7	Contractility (LV dP/dt) [4]: 0.03; Heart rate [5]: 0.3; Mean arterial blood pressure [6]: 0.3
O=C1CCC(c2ccc(-n3ccnc3)cc2)=NN1 [IMAZODAN]	–	0.3	Mean arterial blood pressure [7]: 1; Contractility (LV dP/dt) [8]: 0.3; Heart rate [9]: 0.3
Cc1[nH]c(O)nc1C(=O)c1ccc(-n2ccnc2CO)cc1	49	0.4	–
Cc1[nH]c(=O)c(C#N)cc1-c1ccncc1 [MILRINONE]	–	0.57	Heart rate [13]: 0.06; Contractility (LV dP/dt) [14]: 0.09; Mean arterial blood pressure [15]: 0.2
Cc1nc(O)[nH]c1C(=O)c1ccc(-n2c(C)nc(C)c2C)cc1	> 100	–	C20 [3]: Not reached
Cc1nc(=O)c(C#N)c(NCc2cccnc2)[nH]1 [PELRINONE]	4	0.23	Mean arterial blood pressure [16]: 0.4; Contractility (LV dP/dt) [17]: 0.04; Heart rate [18]: 0.1
CCc1[nH]c(O)nc1C(=O)c1ccc(-n2ccnc2C(C)C)cc1	40	16.3	–
CCc1[nH]c(O)nc1C(=O)c1ccc(-c2ncc[nH]2)cc1	15	0.4	–
CCCc1nccn1-c1ccc(C(=O)c2[nH]c(O)nc2CC)cc1	29	1	–
Cc1[nH]c(O)nc1C(=O)c1ccc(-n2ccnc2C)cc1	30	1	Contractility (LV dP/dt) [22]: 0.3; Heart rate [23]: 0.8; Mean arterial blood pressure [24]: 0.6
CSc1ccc(C(=O)c2[nH]c(=O)[nH]c2C)cc1 [ENOXIMONE]	–	3.18	Contractility (LV dP/dt) [25]: 0.7; Mean arterial blood pressure [26]: 2; Heart rate [27]: 0.6
Cc1cn(-c2ccc(C(=O)c3[nH]c(O)nc3C)cc2)cn1	65	11	–
Cc1[nH]c(O)nc1C(=O)c1ccc(-n2cnc3ccccc32)cc1	20	11	–

Second part, led by results:

IC50 [2] [µM]	SMILES	C20 [1] [µM]	also measured
30	CCc1[nH]c(O)nc1C(=O)c1ccc(Cn2ccnc2)cc1	4	–
2	CCc1[nH]c(O)nc1C(=O)c1ccc(-n2ccnc2)c(C)c1	0.05	–
25	CCc1[nH]c(O)nc1C(=O)c1ccc(-n2ccnc2CC)cc1	0.1	–
4	CCc1[nH]c(O)nc1C(=O)c1ccc(-n2ccnc2)cc1C	0.2	–
2	CCc1[nH]c(O)nc1C(=O)c1ccc(-n2ccnc2)cc1	0.063	Heart rate [10]: 0.016; Mean arterial blood pressure [11]: 0.03; Contractility (LV dP/dt) [12]: 0.02
23	CCc1[nH]c(O)nc1C(=O)c1cccc(-n2ccnc2)c1	0.1	–
6	Cc1[nH]c(O)nc1C(=O)c1ccc(-n2ccnc2)cc1	0.1	Contractility (LV dP/dt) [19]: <=0.1; Heart rate [20]: 0.1; Mean arterial blood pressure [21]: 0.9
73	CCc1[nH]c(O)nc1C(=O)c1ccc(-n2ccnc2C)cc1C	1.3	–
2	CCc1[nH]c(O)nc1C(=O)c1ccc(-n2ccnc2C)c(C)c1	0.2	–
